Measurements reported in PubChem BioAssay AID1508610 (The Scripps Research Institute Molecular Screening Center, 2020).
pEC50: −log10 of the molar value. The source made the active and inactive calls. No rule for the calls is given here.

The molecules below were run against G-protein coupled receptor 151 (Homo sapiens) (UniProt Q8TDV0) (assay: GPR151 activator potency, dose response, cell-based (AID 1508610)). Conditions: cell-based GPR151 activation reporter.
G-protein coupled receptor 151 (Homo sapiens), sequence (Q8TDV0 whole entry, looked up): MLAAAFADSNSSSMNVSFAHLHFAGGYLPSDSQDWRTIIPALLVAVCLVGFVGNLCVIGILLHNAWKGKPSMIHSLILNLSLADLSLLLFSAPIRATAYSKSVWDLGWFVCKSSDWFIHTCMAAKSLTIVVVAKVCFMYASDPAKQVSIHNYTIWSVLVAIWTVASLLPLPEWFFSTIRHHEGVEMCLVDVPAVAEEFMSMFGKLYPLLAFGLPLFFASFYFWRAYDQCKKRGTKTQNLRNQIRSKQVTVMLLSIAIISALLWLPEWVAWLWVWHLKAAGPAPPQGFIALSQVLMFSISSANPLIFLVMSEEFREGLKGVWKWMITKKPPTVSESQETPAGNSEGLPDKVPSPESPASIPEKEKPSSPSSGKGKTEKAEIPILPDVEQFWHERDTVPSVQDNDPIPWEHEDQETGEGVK

Compound	EC50	pEC50
COc1ccc(NS(=O)(=O)c2cccc3c(S(=O)(=O)Nc4ccc(OC)cc4OC)cccc23)c(OC)c1	> 20.8 µM (inactive)	–
CN(C)CCN(C)C(=O)c1cccc(OC2CCN(C3CCSCC3)CC2)c1	> 28 µM (inactive)	–
CCOc1ccc(-n2c(SCC(=O)Nc3ccccc3CC)nc3n[nH]c(C)c3c2=N)cc1	> 27.1 µM (inactive)	–
COc1ccc(-c2ccc(C(=O)NC3CC3)s2)cc1	> 28 µM (inactive)	–
COc1ccc(/C=C2/NC(=O)N(c3cccc(Cl)c3)C2=O)c(OC)c1	> 28 µM (inactive)	–
COc1ccc(N=C2SC(CC(=O)Nc3ccc(OC)cc3OC)C(=O)N2C)cc1 (centres undefined)	–	8.61
CC1CCCCN1Cc1nc2c(c(=O)n(C)c(=O)n2C)n1CC(N)=O (centres undefined)	> 28 µM (inactive)	–
Nc1ncnc2c1ccn2[C@@H]1O[C@H](CO)[C@@H](O)[C@H]1O	–	5.51
COc1ccc(C(=O)Nc2cc(C(=O)NCc3ccc(F)cc3)ccc2N2CC3CC(C2)c2cccc(=O)n2C3)cc1 (centres undefined)	> 16.9 µM (inactive)	–
Cc1nn(-c2ccccc2)c(Cl)c1/C=N\O	> 28 µM (inactive)	–
O=S(=O)(NN=C1CCCCCC1)c1ccccc1	> 28 µM (inactive)	–
CCC(C)C1N=C2c3ccccc3N=C(SCC(=O)N3CC(C)CC(C)C3)N2C1=O (centres undefined)	> 29.4 µM (inactive)	–
CC(C)c1ccc2oc3nc(N)c(C(=O)O)cc3c(=O)c2c1	> 28 µM (inactive)	–
O=C(Nc1nc2c(s1)CCCC2)C1=COCCO1	> 27.4 µM (inactive)	–
CC(=O)c1ccc(NC(=O)COC(=O)c2ccc3c(c2)nc(C)n3-c2ccccc2)cc1	> 28.8 µM (inactive)	–
N#C/C(=C\c1cc(Cl)ccc1O)c1nc2ccccc2[nH]1	> 28 µM (inactive)	–
CCOC(=O)COc1ccc2c(=O)c(Oc3cccc(OC)c3)coc2c1	> 28 µM (inactive)	–
N#CC1=C(N)Oc2n[nH]c(C34CC5CC(CC(C5)C3)C4)c2C1c1cccnc1 (centres undefined)	> 27 µM (inactive)	–
COc1ccc(CCNc2ccnc(Nc3ccc(-n4ccnc4)cc3)n2)cc1	inactive	–
O=C1N[C@@H](Cc2ccc(Cl)cc2)C(=O)N2CCN(C(=O)c3cc(Cl)cc(Cl)c3)C[C@H]12	> 28 µM (inactive)	–
O=C1CC(C(=O)N2CCCC(c3[nH]ncc3-c3ccccc3)C2)c2ccccc21 (centres undefined)	> 28 µM (inactive)	–
O=C(Nc1cc(C(F)(F)F)ccc1F)C1CCCC1	> 28 µM (inactive)	–
O=C(Nc1nc2ccccc2[nH]1)c1ccc(Cl)cc1Cl	> 29.3 µM (inactive)	–
Cc1ccc2nc(-c3ccccc3)[nH]c2c1	> 38.4 µM (inactive)	–
CN1CCN(c2cc(-c3cn[nH]c3)ccc2NC(=O)Cc2cccc(Cl)c2)CC1	–	5.90

Compound	EC50	pEC50
O=C(Cc1cn(-c2ccc(Cl)nn2)c2ccccc12)NCCN1CCOCC1	> 28.1 µM (inactive)	–
O=c1oc(Nc2cccc(C(F)(F)F)c2)nc2ccccc12	> 28.4 µM (inactive)	–
CCOC(=O)c1cc(S(=O)(=O)N2CCN(c3ccccc3F)CC2)cn1C	> 28 µM (inactive)	–
CN(C)c1cccc2c(S(=O)(=O)Nc3nccnc3-c3ccc(C=O)cc3)cccc12	> 28 µM (inactive)	–
O=C(Nc1nc2cc3c(cc2s1)OCO3)C1=COCCO1	> 27.4 µM (inactive)	–
C=CCN1/C(=C\C=C2\C=Nc3ccc(Br)cc32)C=Cc2ccc(C)cc21	> 21.9 µM (inactive)	–
c1ccc(Oc2nc(NC3CC3)c3ncn(-c4ccsc4)c3n2)cc1	inactive	–
Cc1nccc2[nH]c(=O)c(C(=O)NC3CCN(Cc4ccccc4)CC3)cc12	> 28 µM (inactive)	–
COC(=O)c1ccc(Cl)cc1NC(=O)N(C(C)C)C1CCN(C(C)=O)CC1	> 28 µM (inactive)	–
Cc1ccc(C(=O)NN=C2CCC(C)CC2)cc1 (centres undefined)	> 28 µM (inactive)	–
O=C1NC(c2ccc(Cl)cc2Cl)Oc2ccccc21 (centres undefined)	> 28 µM (inactive)	–
O=C(NC1CC1)c1ccc(-c2ccc(N3CCOCC3)nc2)s1	> 27.6 µM (inactive)	–
Cc1cccc2c(C(=O)NCc3ccccc3)cc(-c3ccccc3)nc12	> 24.6 µM (inactive)	–
O=C(Nc1ncc(C(O)(C(F)(F)F)C(F)(F)F)s1)c1ccccc1Cl	> 30.5 µM (inactive)	–
COCCNC(=O)/C(C#N)=C/C=C/c1ccccc1	> 30.6 µM (inactive)	–
NN1C(=O)c2ccccc2NC1C1CC=CCC1 (centres undefined)	> 28 µM (inactive)	–
COC(=O)C(NC(=O)c1cccc(Cl)c1)(Nc1ccc(Cl)cn1)C(F)(F)F (centres undefined)	> 28 µM (inactive)	–
O=C(Nc1ncc([N+](=O)[O-])s1)c1ccccc1F	> 34 µM (inactive)	–
Cc1ccc(CNC(=O)c2csnn2)cc1	> 28 µM (inactive)	–
COc1ccc(N2CCN(C3CC(=O)NC3=O)CC2)cc1 (centres undefined)	> 28 µM (inactive)	–
COC(C(=O)NCC1CCC2(CCN(Cc3ccccc3)CC2)O1)c1ccccc1 (centres undefined)	> 28 µM (inactive)	–
CC(=O)Nc1ccc(NC(=O)c2ccc3nc(Nc4ccccn4)sc3c2)cc1	> 28 µM (inactive)	–
O=C(O)C1CCCN(c2nn3cc(-c4ccc(F)cc4)nc3s2)C1 (centres undefined)	> 28 µM (inactive)	–
O=C(NCc1ccc(F)cc1)c1cc(-c2ccccc2Cl)nc2ccccc12	> 32.1 µM (inactive)	–
CCC(=O)Oc1ccc2cc(-c3ccc(OC)c(OC)c3)c(=O)oc2c1	> 28.5 µM (inactive)	–

Compound	EC50	pEC50
CC(=O)OCC1=C(C(=O)O)N2C(=O)[C@@H](NC(=O)Cc3cccs3)[C@H]2SC1	> 28 µM (inactive)	–
CSc1nccc(-c2cc(Cl)c3c(c2)CC(CNC(=O)c2ccoc2)O3)n1 (centres undefined)	> 28 µM (inactive)	–
COc1ccccc1-c1nnc(NC(=O)c2ccc([N+](=O)[O-])s2)o1	> 9.17 µM (inactive)	–
C[C@H]1NC(=O)[C@H]2CN(C(=O)NCc3ccccc3)CCN2C1=O	> 28 µM (inactive)	–
O=C(O)c1ccc(-c2nc3ccccc3s2)s1	> 30 µM (inactive)	–
COc1ccccc1N1CCN(C(=O)c2cnc(N3CCN(c4ncccn4)CC3)c3ccccc23)CC1	> 20.1 µM (inactive)	–
CCOC(=O)c1cnc2c(OC)cccc2c1NC1CCCCC1	inactive	–
O=C(NCCO)c1ccc2nc(-c3csc4ccccc34)sc2c1	> 28.1 µM (inactive)	–
CC(C)c1ccc(Cn2ccc3c4c(N)nc(NC5CC5)nc4ccc32)cc1	–	5.41
Cn1ncc2c(NCCc3ccc(Cl)cc3Cl)ncnc21	> 27.8 µM (inactive)	–
Cc1ccc2c(c1)N(CC(=O)Nc1ccc(Cl)cc1)C(=O)C(C)O2 (centres undefined)	> 28 µM (inactive)	–
CCN(CC)S(=O)(=O)c1ccc(-c2csc(=Nc3ccccc3OC)n2CC)cc1	> 17.3 µM (inactive)	–
CCCN1C(=O)C[n+]2ccccc2C1C(=O)Nc1ccccc1C (centres undefined)	> 28 µM (inactive)	–
COc1cccc(-c2ccc(SCC(=O)Nc3cc(C)on3)nn2)c1	> 28.3 µM (inactive)	–
CCOc1ccccc1CN1CCN(Cc2cccc(OC)c2)CC1CCO (centres undefined)	> 28 µM (inactive)	–
Cc1ccc(-c2cnn(-c3ccc(C(=O)O)cc3)c2)cc1	> 28 µM (inactive)	–
Cc1c(N=Nc2c(O)[nH]c(=S)[nH]c2=O)c(=O)n(-c2ccccc2)n1C	> 28 µM (inactive)	–
CC1CCCC(NCc2c(C(=O)O)n(Cc3ccccc3F)c3ccccc23)C1C (centres undefined)	> 28 µM (inactive)	–
O=C1NC(=S)S/C1=C\c1ccc(C(=O)O)cc1	> 29.6 µM (inactive)	–
COc1ccc(-c2nc(C(=O)N3CCN(C)CC3)sc2-c2ccc(OC)cc2)cc1	> 11.2 µM (inactive)	–
O=C(Nc1ccc(Oc2cc3ccccc3cc2Cl)c(Cl)c1)c1cc(Br)cc(Br)c1O	> 17.2 µM (inactive)	–
Cc1ccsc1C(=O)Nc1nc2ccc(S(C)(=O)=O)cc2s1	> 28.6 µM (inactive)	–
COc1ccc(-c2noc(CCC(=O)Nc3ccc(C)c(C)c3)n2)cc1	> 28 µM (inactive)	–
CCCCCNC(=O)c1c(O)c2c([nH]c1=O)CCCC2	> 34.1 µM (inactive)	–
Cc1cccc(C)c1-n1c(=S)sc2c(=O)n(-c3cccc(Cl)c3)c(SCC#N)nc21	> 21.8 µM (inactive)	–

Compound	EC50	pEC50
Fc1ccc(-c2cnc(N3CCC4(CC3)OCCO4)nc2)cc1	> 28 µM (inactive)	–
COc1ccc(N2C(=O)NC3CC2(C)Oc2c(OC)cccc23)c(OC)c1 (centres undefined)	> 28.7 µM (inactive)	–
O=C(O)CCCN=C1CCc2ccccc2N1	> 43.2 µM (inactive)	–
Cc1ccc(S(=O)(=O)Cn2nnnc2CN2CCN(c3ccccc3F)CC2)cc1	> 28 µM (inactive)	–
Cc1nn(-c2ccc(Nc3ccc(NC(=O)c4cccc(F)c4)cc3)nn2)c(C)c1C	inactive	–
Cc1cc2nc(-c3ccc[nH]c3=O)[nH]c2cc1C	> 28.1 µM (inactive)	–
COc1cc(Br)ccc1OCC(=O)N/N=C/c1ccc([N+](=O)[O-])cc1	> 28 µM (inactive)	–
CCC(Sc1nc(NC2CCCCC2)c2ccccc2n1)C(=O)Nc1ccc2c(c1)OCO2 (centres undefined)	> 20.6 µM (inactive)	–
CCOC(=O)c1cnc2c(OC)cccc2c1NC1CCCCCC1	inactive	–
NC(=O)/C(=C\c1ccco1)NC(=O)c1ccccc1Br	> 28 µM (inactive)	–
O=C(Nc1ccc(Br)cc1)c1ccc(Br)c(S(=O)(=O)N2CCCCC2)c1	> 20.9 µM (inactive)	–
O=C(CN1C(=O)C(c2ccccc2)=NC12CCCC2)Nc1ccccc1	> 28 µM (inactive)	–
COc1cc(C2CC(=O)c3c([nH]c(C(=O)OCCSC)c3C)C2)cc(OC)c1OC (centres undefined)	–	8.85
CCCCCCCCCCCCCCCC(=O)SCCOP(=O)(O)OCC[N+](C)(C)C	> 11.2 µM (inactive)	–
O=C(O)c1cccc(COc2ccc3ccccc3c2)c1	> 28 µM (inactive)	–
Cc1ccc2cc(CN(CC3CCCO3)C(=O)C3CCC3)c3nnnn3c2c1 (centres undefined)	> 28 µM (inactive)	–
O=C(O)c1cccc(NC(=O)c2ccc(Br)o2)c1	> 28 µM (inactive)	–
N=C1c2ccccc2CN1CC(=O)c1ccccc1	> 27.4 µM (inactive)	–
CC(C)CC(=O)NCC1CCC2(CCN(Cc3ccccc3F)CC2)O1 (centres undefined)	> 28 µM (inactive)	–
CCC(C)OC(=O)C1=C(C)NC2=C(C(=O)CC(c3ccc(OC)cc3)C2)C1c1cc(OC)c(OC)cc1Br (centres undefined)	> 22.4 µM (inactive)	–
O=c1oc2ccccc2cc1-c1cn2ccccc2n1	> 34.7 µM (inactive)	–
O=C(O)c1ccc(OCc2ccnc(Cl)c2)cc1	> 28 µM (inactive)	–
COC(=O)c1cccc(NC(=O)c2cccc(Br)c2)c1C	> 28 µM (inactive)	–
CC(=O)OC(C(=O)NCc1ccco1)c1ccncc1 (centres undefined)	> 28 µM (inactive)	–
